Patent US10028999B2, “PAR-1 based therapeutic conjugates and uses thereof” (TEL HASHOMER MEDICAL RESEARCH INFRASTRUCTURE AND SERVICES …, priority 2014, dated 2018)
Peptide text beside a SMILES is read from it. * marks the point of attachment. Tos = Cc1ccc(S(=O)(=O)*)cc1; CH2Cl = ClC*

Key:
[1] = test system: blood coagulation (prothrombin time); experiment: Prothrombin time test; format: biochemical; conditions: for PT: without conjugate 11.5; for Potency score in PT test: most potent (1) to least potent (5)
Factor Xa = Factor Xa activity test; format: biochemical; conditions: 100 μM; for Potency score in Factor Xa activity test: most potent (1) to least potent (5); for Fxa: without conjugate 0.11
thrombin = experiment: Thrombin time test; format: biochemical; conditions: for TT: without conjugate 13.4; for Potency score in TT test: most potent (1) to least potent (5)
blood coagulation (aPTT) = experiment: Activated partial thromboplastin time test; format: biochemical; conditions: for aPTT: without conjugate 30.5; for Potency score in aPTT test: most potent (1) to least potent (5)
in vivo = conditions: ip, 2 micromolar, in 100 ul
Experimental: The concentrations of the peptide conjugates in the plasma of animals treated therewith was evaluated by a unique method that was based on the ability of the peptide conjugates to inhibit thrombin activity. […] The essay initiated by obtaining blood samples from animals which received the peptide conjugates (100 microliter containing 2 micromolar, i.p.). The blood samples, after being maintained in citrate buffered sample tubes, were subjected to centrifugation for plasma separation. Samples were then filtered through a membrane with a 10 kD molecular weight cutoff which excluded all blood coagulation factors (by addition of calcium to neutralize the anticoagulation effect of the citrate buffer). Coagulation factor-free plasma samples were then applied to the thrombin activity assay.
The resulting thrombin activities in each plasma sample either diluted (×10) or as is were given in arbitrary units (FIGS. 18-18D, diagonal shading and dotted bars, respectively). However, the actual concentration were deduced by comparing the activities to calibrated activities generated with known concentrations of the conjugate peptides. The calibration data included the following thrombin activities: activity in a sample of thrombin in the absence of plasma and conjugates (black bars, FIGS. 18A-18D); and activity in four samples of thrombin and known concentrations of the peptide conjugates (10 nM, 100 nM, 1 micromolar and 10 micromolar; bars 2nd to 5th from right in FIGS. 18A-18D).

CNS-1 glioma cells [2] = test system: CNS-1 glioma cells
Experimental: The thrombin-like activity of CNS-1 cells was initially measured in control cells and in cells treated with (i) the short peptide conjugate (tosyl-DPR-CK, corresponding to a conjugate that includes the peptide termed 3AA) or (ii) the long conjugate (tosyl-NATLDPR-CK, corresponding to a conjugate that includes the peptide termed 7AA (SEQ ID No. 4)) at high ([…]) and low (100 nM) concentrations (FIG. 16).

Protein C = Protein C (Homo sapiens, UniProt P04070); experiment: Protein C activity test; format: biochemical; conditions: for aPC: without conjugate 109; for Potency score in Protein C activity test: most potent (1) to least potent (5)
[3] = test system: STZ-induced diabetic BALB/c mice; experiment: Sciatic nerve conduction velocity in STZ diabetic neuropathy mice; format: in vivo; conditions: daily 100 microliter of 10 nM, p=0.016, listed as T5AACK
Experimental: The conduction velocity of sciatic nerves derived from an animal model of diabetes (streptozotocine (STZ)-induced diabetes; FIG. 20) was measured in mice treated daily with sham (STZ), or with the active drug TLDPR (peptide 5AA; SEQ ID NO: 2) nested between N alpha-tosyl and chloromethyl ketone, namely […] (termed hereinafter T5AACK) injected in 100 microliter of 10 nM, 100 nM and 1 micromolar.
Conduction velocities in the sciatic nerves of the mice were assessed by standard electrophysiology nerve conduction methods by a blind assessor. The nerve conduction studies were carried out one month after the induction of diabetes. A group of normal mice without diabetes served as controls. All STZ treated mice developed severe diabetes.
Streptozotocyn (STZ) was dissolved in citrate buffer pH 4.5 and a single dose of STZ was administered IP (140 mg/kg) to 12 weeks BALB/c mice. […] Mice developed diabetic neuropathy developed within 4 weeks after the induction of diabetes. […]
Conduction velocities in the sciatic nerves of the mice were assessed by standard electrophysiology nerve conduction methods by a blind assessor (FIG. 19).

[4] = test system: rat Glioblastoma multiforme (GBM) tumor; experiment: Tumor size, edema and survival in GBM animal model; format: in vivo; conditions: for change in edema surrounding the tumor: 1 μl/h for 7 days; for change in tumor size: 1 μl/h for 7 days intratumoral, MRI, grade 1 and 2 tumors; for rats with severe initial tumors surviving to the second MRI: none of 3 in controls
Experimental: Cells (0.5×10^6 cells) from a highly malignant cell line of rat Glioblastoma multiforme (GBM) were injected by stereotactic methods into the parietal cortex of rats. Five (5) days later the brain of these rats were examined by MM and the tumors scored on a scale of 1-3 (1-small size tumor, 2-middle size tumor, 3-large size tumor) and for ventricular localization of the tumor. A catheter was placed in the brain tumor and attached to an osmotic pump (Alzet) releasing 1 μl/h for 7 days of one of the following three (3) treatments: saline (n=13), 6AA 2 μM (n=14) and 6AA 20 μM (n=14).
In order to account for the unequal distribution of initial tumor size, tumor and edema analyses were performed on rats with grade 1 and 2 tumors in the initial Mill (n=7, 6 and 5 for the saline, low and high treatment groups, respectively).
Survival was registered daily (FIG. 21).

CNS-1 glioma cells [5] = experiment: Proliferation (XTT) of CNS-1 glioma cells; format: cell-based, rat; conditions: CNS-1 cells
Experimental: Several peptide moieties (Table 1) according to the present invention were synthesized. Proliferation was measured, by means of XTT, in C6 and CNS-1 glioma cell-lines (FIGS. 8A and 8B, respectively). In C6 cells, proliferation was measured before (black bar) and after cells were treated with the PAR-1 antagonist SCH79797 at various doses ranging from 10 nM to 10 μM (grey bars; FIG. 8A).
In another set of experiments, CNS-1 glioma cell-line was treated with increased doses of TLCK (125 nM to 14 mM), for 48 hours (FIG. 9; grey bars). Proliferation was measured by means of XTT in comparison to non-treated cells (control; black bar).
Initially, CNS-1 glioma cells were treated with increased concentrations of two peptide conjugates: a short conjugate of the formula tosyl-DPR-CK (comprising 3 amino acids, 3AA) or a long conjugate of the formula tosyl-NATLDPR-CK (comprising 7 amino acids, 7AA; SEQ ID NO: 4) in concentrations of 100 pM, 1 nM and 10 nM, for 48 hours (FIG. 10). FIG. 10 provides the results of an XTT assay used for assessing cell proliferation.
The effect of the peptide conjugate alone, or in combination with PAR-1 antagonist, SCH79797, on cell proliferation was determined in comparison to untreated cells or cells treated with PAR-1 antagonist (FIG. 13).

[6] = test system: EAN rats (experimental autoimmune neuritis); experiment: Electrophysiological tests in EAN rats treated with thrombin inhibitors; format: in vivo, rat
Experimental: (§1) Electrophysiological tests of the sciatic nerves were performed on day 32 PI (post-immunization/induction) in EAN model (FIGS. 3A-C) and 8 weeks after STZ induction (FIG. 4A-C). Rats were anesthetized with Phenobarbital (IP, 24 mg/kg). Two pairs of monopolar needle electrodes were used to stimulate the tail nerves. Stimulating cathodes were inserted to a depth of 4-5 mm at the base of the tail and 4 cm distally. An anode at each location was inserted into the skin (4-5 mm depth) 1 cm proximal to the cathode. A ground electrode was placed between the distal stimulating electrode and the active recording electrode. Electromyography (EMG) recordings of responses of the tail muscles to proximal and distal stimuli, made by a pair of ring electrodes coated with electrode jelly and placed 1 cm distally to the distal stimulating electrode, were collected. The tail skin was wiped with alcohol prior to placing the electrodes. […] Both proximal and distal latencies were measured using time intervals from the stimulus artifact to the first deflection from baseline. To calculate the motor nerve conduction velocity (MNCV), the distance between stimulating cathodes was divided by the latency difference. Amplitudes of the compound muscle action potential (CMAP) from both proximal and distal stimulations were measured from the negative to the positive peaks. The reduction of the proximal CMAP compared with that of the distal CMAP was calculated by the equation: [(distal CMAP-proximal CMAP)/distalCMAP×100] and was defined as the R ratio. Temperature differences were minimized by conducting the study as soon as the anesthesia had taken effect and by warming the tail with a heating lamp.
(§2) FIGS. 3 and 4 each include 3 graphs summarizing the results from electrophysiological tests of treated rats, as follows: distal latency (3A, 4A) referring to the time, in milliseconds, between distal stimulation to recording; conduction velocity (3B, 4B) referring to the distance over time, in meters/seconds; and amplitude (3C, 4C) referring to the size of the response as measured in millivolts.

[7] = test system: STZ-induced diabetic rats; experiment: Electrophysiological tests in STZ-induced diabetic rats treated with thrombin inhibitors; format: in vivo, rat
Experimental: as §1, §2

Chain of Protein C (P04070 212-461 limits assumed): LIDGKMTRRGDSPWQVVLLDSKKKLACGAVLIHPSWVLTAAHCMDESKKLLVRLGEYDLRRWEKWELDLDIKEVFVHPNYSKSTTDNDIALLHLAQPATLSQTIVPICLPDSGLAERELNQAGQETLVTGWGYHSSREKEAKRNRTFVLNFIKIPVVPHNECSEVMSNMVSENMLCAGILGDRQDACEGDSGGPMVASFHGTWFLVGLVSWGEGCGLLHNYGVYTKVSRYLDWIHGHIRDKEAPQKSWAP
Chain of Protein C (P04070 43-197 partner limits assumed): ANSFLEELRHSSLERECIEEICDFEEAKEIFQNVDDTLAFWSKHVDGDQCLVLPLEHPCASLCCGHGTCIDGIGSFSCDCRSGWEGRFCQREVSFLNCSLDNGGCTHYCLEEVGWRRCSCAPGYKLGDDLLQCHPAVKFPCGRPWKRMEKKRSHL

Row | Molecule | PT ([1]; 10 nM) [s] | PT ([1]; 1 μM) [s] | Potency score in PT test ([1]; 100 μM) | PT ([1]; 100 μM) [s] | Potency score in Factor Xa activity test (Factor Xa) | Fxa (Factor Xa) | TT (thrombin; 10 nM) [s] | Potency score in TT test (thrombin; 1 μM) | TT (thrombin; 1 μM) [s] | TT (thrombin; 100 μM) [s] | aPTT (blood coagulation (aPTT); 10 nM) [s] | aPTT (blood coagulation (aPTT); 1 μM) [s] | Potency score in aPTT test (blood coagulation (aPTT); 100 μM) | aPTT (blood coagulation (aPTT); 100 μM) [s] | level at time molar (in vivo) [µM] | IC50 (CNS-1 glioma cells [2]) [nM] | aPC (Protein C; 1 μM) | Potency score in Protein C activity test (Protein C; 100 μM) | aPC (Protein C; 100 μM) | inhibition of cell proliferation (CNS-1 glioma cells [5]; 48 hours, 10 μM, p<0.05) | also measured
1 | Cc1ccc(S(=O)(=O)N[C@H](C(=O)N[C@@H](CC(C)C)C(=O)N[C@@H](CC(=O)O)C(=O)N2CCC[C@H]2C(=O)N[C@@H](CCCNC(=N)N)C(=O)CCl)[C@@H](C)O)cc1 [5AA, tosyl-TLDPR-CK] (Tos-TLDPR-CH2Cl) | 12.1 | 11.5 | 4 | 14.5 | 4 | 0.13 | 13.8 | 4 | 17.8 | > 80 | 30.1 | 30.5 | 4 | 63.9 | < 0.01 | 0.7 | 109 | 3 | 20 | – | sciatic nerve conduction velocity relative to sham treated mice [3]: followed a similar trend
2 | Cc1ccc(S(=O)(=O)N[C@@H](C)C(=O)N[C@H](C(=O)N[C@@H](CC(C)C)C(=O)N[C@@H](CC(=O)O)C(=O)N2CCC[C@H]2C(=O)N[C@@H](CCCNC(=N)N)C(=O)CCl)[C@@H](C)O)cc1 [6AA, tosyl-ATLDPR-CK] (Tos-ATLDPR-CH2Cl) | 11.5 | 11.4 | 3 | 16.5 | 3 | 0.36 | 13.9 | 3 | 18.5 | > 80 | 30 | 30.6 | 3 | 67.6 | < 0.01 | – | 108 | 2 | 11 | Significant inhibition | change in edema surrounding the tumor ([4]; 2 μM): reduction in the edema; change in tumor size ([4]; 2 μM): A similar trend was observed; rats with severe initial tumors surviving to the second MRI ([4]; 2 μM): 1 out of 3; change in edema surrounding the tumor ([4]; 20 μM): reduction in the edema; change in tumor size ([4]; 20 μM, p=0.030): reduced tumor size to half of the original size; survival ([4]; 20 μM, registered daily): clear trend to increased survival; rats with severe initial tumors surviving to the second MRI ([4]; 20 μM): all 3; proliferation compared to controls (CNS-1 glioma cells [5]; 72 hours, all tested concentrations, p<0.05): significantly lower proliferation
3 | Cc1ccc(S(=O)(=O)N[C@@H](CC(N)=O)C(=O)N[C@@H](C)C(=O)N[C@H](C(=O)N[C@@H](CC(C)C)C(=O)N[C@@H](CC(=O)O)C(=O)N2CCC[C@H]2C(=O)N[C@@H](CCCNC(=N)N)C(=O)CCl)[C@@H](C)O)cc1 [7AA, tosyl-NATLDPR-CK] (Tos-NATLDPR-CH2Cl) | 11.5 | 11.2 | 2 | 17.4 | 2 | 0.43 | 13.5 | 2 | 24.1 | > 80 | 29.9 | 30.7 | 2 | 85.2 | ~0.01 | 0.01 | 110 | 4 | 25 | Significant inhibition | inhibition of cell proliferation (CNS-1 glioma cells [5]; XTT, 48 hours, 10 nM): significant inhibition; inhibition of cell proliferation, in combination with PAR-1 antagonist (CNS-1 glioma cells [5]; XTT, PAR-1 antagonist 1 μM, compared to untreated cells and to PAR-1 antagonist alone): greater inhibition on cell proliferation; inhibition of cell proliferation, applied alone (CNS-1 glioma cells [5]; XTT, compared to untreated cells and to PAR-1 antagonist alone): greater inhibition on cell proliferation
4 | N alpha-tosyl-L-lysine chloromethyl ketone [TLCK] | – | – | – | – | – | – | – | – | – | – | – | – | – | – | – | – | – | – | – | – | conduction velocity ([6]; daily treatment for 2 weeks, TLCK 4.4 mg/kg, NAPAP 120 μM/kg, untreated EAN 23.6±1.2): 40.55±6.7 m/sec; proximal amplitude ([6]; untreated EAN 0.76±0.33, non-significant): 1.36±0.49 millivolts; latency ([6]; untreated EAN 1.43±0.023, control 0.54±0.03): 1.28 ± 0.18 ms; conduction velocity ([7]; STZ rats, daily treatment for 2 weeks, TLCK 4.4 mg/kg, NAPAP 120 μM/kg, untreated STZ 28.5±2.8): 41.95±3.9 m/sec; proximal amplitude ([7]; STZ rats, untreated STZ 0.48±0.13, insignificant): 1.81±0.8 millivolts; latency ([7]; STZ rats, untreated STZ 1.93±0.139, control 1.29±0.057): 1.44 ± 0.04 ms; internal bleeding ([7]; animals treated with thrombin inhibitors): caused severe internal bleeding; concentration at which glioma-cell proliferation decreased (CNS-1 glioma cells [5]; 48 hours): higher than 1 μM; proliferation-inhibition (CNS-1 glioma cells [5]; 48 hours, 1 μM to 125 nM): No significant proliferation-inhibition; proliferation / cell death (CNS-1 glioma cells [5]; 48 hours, 6.7 mM and 14 mM): caused cell death; proliferation-inhibition (CNS-1 glioma cells [5]; 48 hours, 8-33 μM): significant proliferation-inhibition; proliferation, administered alone (CNS-1 glioma cells [5]; XTT, 1 μM): did not inhibit proliferation; proliferation-inhibition, combined treatment with the PAR-1 antagonist (CNS-1 glioma cells [5]; compared with PAR-1 antagonist (1 μM) alone): significantly increased said inhibitory effect
